The text below walks through data of patent US20250034182A1, “PHOSPHOLIPID COMPOUNDS AND METHODS OF MAKING AND USING THE SAME” (priority 2021, published 2025).

Holding throughout (assay type): cell-based
Data set [1] deals with HCV Replicon 2A. In words: HCV Replicon 2A EC50 (Example Q). Conditions: Hepatitis C virus, 72 h; HCV replicon cells, 3 days, Dual-Glo luciferase; read-out: HCV Replicon 2A EC50 (nM) (per Ex. Q). The method, then:
(§1) Compounds were serially diluted in ten steps of 1:3 dilutions in 384-well plates. All serial dilutions were performed in four replicates per compound within the same 384-well plate. An HCV protease inhibitor ITMN-191 at […] was added as a control of 100% inhibition of HCV replication while puromycin at 10 mM was included as a control of 100% cytotoxicity. To each well of a black polystyrene 384-well plate (Greiner Bio-one, Monroe, NC), 90 μL of cell culture medium (without Geneticin) containing 2000 suspended HCV replicon cells was added with a Biotek μFlow workstation. For compound transfer into cell culture plates, 0.4 μL of compound solution from the compound serial dilution plate was transferred to the cell culture plate on a Biomek FX workstation. The DMSO concentration in the final assay wells was 0.44%. The plates were incubated for 3 days at 37° C. with 5% CO2 and 85% humidity. The HCV replicon assay was a multiplex assay, able to assess both cytotoxicity and antireplicon activity from the same well. The CC50 assay was performed first. The media in the 384-well cell culture plate was aspirated, and the wells were washed four times with 100 μL of PBS each, using a Biotek ELX405 plate washer. A volume of 50 μL of a solution containing 400 nM calcein AM (Anaspec, Fremont, CA) in 1×PBS was added to each well of the plate with a Biotek μFlow workstation. The plate was incubated for 30 min at room temperature before the fluorescence signal (excitation 490 nm, emission 520 nm) was measured with a Perkin-Elmer Envision plate reader. The EC50 assay was performed in the same wells as the CC50 assay. The calcein-PBS solution in the 384-well cell culture plate was aspirated with a Biotek ELX405 plate washer. A volume of 20 μL of Dual-Glo luciferase buffer (Promega, Madison, WI) was added to each well of the plate with a Biotek μFlow Workstation. The plate was incubated for 10 min at room temperature. A volume of 20 μL of a solution containing a 1:100 mixture of Dual-Glo Stop & Glo substrate (Promega, Madison, WI) and Dual-Glo Stop & Glo buffer (Promega, Madison, WI) was added to each well of the plate with a Biotek μFlow Workstation. The plate was then incubated at room temperature for 10 min before the luminescence signal was measured with a Perkin-Elmer Envision Plate Reader.
A general note: In antiviral work, replicon cells carry a viral genome segment that copies itself.

Data set [2] in a line: HCV Replicon 2A CC50, calcein AM (Example Q). Conditions: HCV replicon cells (2A), calcein AM fluorescence, read-out: HCV Replicon 2A CC50 (nM) (per Ex. Q). On the procedure:
as §1

For data set [3], the system named is CAN97-83-GFP1 (A2a) hMPV in H1-HeLa cells. In words: hMPV H1-Hela EC50, anti-nucleoprotein ELISA (Example X). To be noted: human metapneumovirus, 96 h, read-out: hMPV H1-Hela EC50 (nM) (per Ex. X). On the procedure: The human metapneumoavirus (hMPV) anti-viral assay is an anti-nucleoprotein ELISA performed in infected H1-HeLa cells. H1-HeLa cells were maintained in Dulbecco's Modified Eagle's Medium with high glucose (Gibco, Cat #: 11995073) supplemented with 10% FBS (HyClone, Cat #: SH303396.03), 100 units/mL penicillin and 100 μg/mL streptomycin (Gibco, Cat #: 15140122). One day before infection, H1-HeLa cells were seeded into 96-well plates (Corning, Cat. #: 3903) at 0.1 mL/well at 1.5×10^5 cells/mL in Opti-MEM (Gibco, Cat #: 31985070) supplemented with 2% FBS, and were incubated at 37° C. in a 100% humid atmosphere containing 5% (v/v) CO2 overnight. On the next day, CAN97-83-GFP1 (A2a) hMPV was diluted in Opti-MEM medium containing 200 μg/mL CaCl2) and 2 μg/mL TPCK treated trypsin and distributed to the 96-well plates at 0.1 mL/well for an MOI=0.1. Test compounds were distributed to each well using a HP D300e digital dispenser with a final volume of 200 µL/well. After the plates were centrifuged at 700 g for one hour at room temperature, they were maintained in a humidified chamber at 37-C with 5% (v/v) CO2 for 96 hours. After the incubation, the medium was removed, and the plates were fixed with 0.1 mL/well 1% formaldehyde for 15 min at room temperature. The fixative was removed, the plates were air dried for 30-60 minutes, and then permeabilized with 0.1 mL/well 0.5% Triton X-100 in PBS for five minutes at room temperature. Following permeabilization, the plates were washed once with 0.1 mL/well blocking buffer consisting of 10% FBS (HyClone, Cat #: SH303396.03), 5% dry milk (AmericanBio, Cat #: AB10109-01000), and 0.1% Tween 20 (EMD Millipore, Cat #655204) in PBS. The plates were blocked with 0.1 mL/well blocking buffer for 60 minutes at 37° C. afterward. The blocking buffer was removed and 0.05 mL/well human metapneumovirus nucleocapsid antibody (Sigma, Cat #MAB80121) diluted 1:500 in Blocking buffer was added and incubated for two hours at 37-C. The plates were then washed with 0.2 mL/well 0.1% Tween 20/PBS five times, followed by addition of 0.05 mL/well of horseradish peroxidase (HRP) conjugated goat anti-mouse IgG antibody (Fisher Scientific, Cat #501077607) at 1:2000 dilution in the blocking buffer. After one-hour incubation at 37-C, plates were washed five times with 0.2 mL/well 0.1% tween 20 in PBS. The HRP signals were developed by adding 0.1 mL/well of TMB reagent (Thermo Scientific, Cat #: ENN301) and incubating at room until the positive control was apparent. At that point, the reaction was stopped by adding 0.1 mL/well TMB stop solution (SeraCare, Cat #: 5150-0021). The absorbance was measured at 450 nm with an EnVision plate reader. The relative absorbance was calculated by normalizing the absorbance of the compound-treated groups to that of the DMSO-treated groups (set as 100%). EC50 values were calculated using a nonlinear four parameter variable slope regression model.
A general note: An ELISA detects its analyte on a solid surface through an enzyme-linked reagent.

Usually EC50 stands for the concentration giving half of the maximal effect. The CC50 is the concentration that lowers cell viability or growth by half.

For `CCCCCCCCCCCCCCCCCCOC[C@H](COP(=O)(O)OC[C@@]1(C#N)O[C@@H](c2ccc3c(N)ncnn23)[C@H](O)[C@@H]1O)Oc1cccc(C#N)n1` [Compound 21, ((2R,3S,4R,5S)-5-(4-aminopyrrolo[2,1-f][1,2,4]triazin-7-yl)-2-cyano-3,4-dihydroxytetrahydrofuran-2-yl)methyl ((R)-2-((6-cyanopyridin-2-yl)oxy)-3-(octadecyloxy)propyl) hydrogen phosphate], in data set [1], the half-maximal effective concentration (EC50) is 19200 nM. In addition, in data set [2], the CC50 at 3 days was more than 44400 nM. In the case of `CCCCCCCCCCCCCCCCCCOC[C@H](COP(=O)(O)OC[C@@]1(C#N)O[C@@H](c2ccc3c(N)ncnn23)[C@H](O)[C@@H]1O)Oc1ccc(C#N)c(OC(C)C)c1` [Compound 23, ((2R,3S,4R,5S)-5-(4-aminopyrrolo[2,1-f][1,2,4]triazin-7-yl)-2-cyano-3,4-dihydroxytetrahydrofuran-2-yl)methyl ((R)-2-(4-cyano-3-isopropoxyphenoxy)-3-(octadecyloxy)propyl) hydrogen phosphate], the EC50 in data set [3] was 156 nM.

For the compound `CCCCCCCCCCCCCCCCCCC[C@H](COP(=O)(O)OC[C@@]1(C#N)O[C@@H](c2ccc3c(N)ncnn23)[C@H](O)[C@@H]1O)OCc1cc(F)cc(C#N)c1` [Compound 25, ((2R,3S,4R,5S)-5-(4-aminopyrrolo[2,1-f][1,2,4]triazin-7-yl)-2-cyano-3,4-dihydroxytetrahydrofuran-2-yl)methyl ((R)-2-((3-cyano-5-fluorobenzyl)oxy)henicosyl) hydrogen phosphate], in data set [3], the concentration giving a half-maximal response (EC50) was determined as 1280 nM. Turning to `CCCCCCCCCCCCCCCCCCC[C@H](COP(=O)(O)OC[C@@]1(C#N)O[C@@H](c2ccc3c(N)ncnn23)[C@H](O)[C@@H]1O)OCc1ccc(C#N)c(OC(C)C)c1` [Compound 28, ((2R,3S,4R,5S)-5-(4-aminopyrrolo[2,1-f][1,2,4]triazin-7-yl)-2-cyano-3,4-dihydroxytetrahydrofuran-2-yl)methyl ((R)-2-((4-cyano-3-isopropoxybenzyl)oxy)henicosyl) hydrogen phosphate], the 50% effective concentration (EC50) in data set [3] turned out to be 625 nM. On to `CCCCCCCCCCCCCCCCCCCC[C@H](COP(=O)(O)OC[C@@]1(C#N)O[C@@H](c2ccc3c(N)ncnn23)[C@H](O)[C@@H]1O)OCc1cc(F)cc(C#N)c1` [Compound 34, ((2R,3S,4R)-5-(4-aminopyrrolo[2,1-f][1,2,4]triazin-7-yl)-2-cyano-3,4-dihydroxytetrahydrofuran-2-yl)methyl ((R)-2-((3-cyano-5-fluorobenzyl)oxy)docosyl) hydrogen phosphate], for which the 50% effective concentration (EC50) in data set [3] was found to be 646 nM. Consider `CCCCCCCCCCCCCCCCCC[C@@H](COP(=O)(O)OC[C@@]1(C#N)O[C@@H](c2ccc3c(N)ncnn23)[C@H](O)[C@@H]1O)OCc1cc(F)cc(C#N)c1` [Compound 37, ((2R,3S,4R)-5-(4-aminopyrrolo[2,1-f][1,2,4]triazin-7-yl)-2-cyano-3,4-dihydroxytetrahydrofuran-2-yl)methyl ((S)-2-((3-cyano-5-fluorobenzyl)oxy)icosyl) hydrogen phosphate], for which the EC50 in data set [1] is 26000 nM. For the same compound, the CC50 at 3 days in data set [2] was more than 44400 nM. On to `CCCCCCCCCCCCCCCCCCC[C@H](COP(=O)(O)OC[C@@]1(C#N)O[C@@H](c2ccc3c(N)ncnn23)[C@H](O)[C@@H]1O)Oc1ccc(C#N)c(OC(C)C)c1` [Compound 38, ((2R,3S,4R,5S)-5-(4-aminopyrrolo[2,1-f][1,2,4]triazin-7-yl)-2-cyano-3,4-dihydroxytetrahydrofuran-2-yl)methyl ((R)-2-(4-cyano-3-isopropoxyphenoxy)henicosyl) hydrogen phosphate], for which the EC50 in data set [3] turned out to be 137 nM. Same read-out and setting: with `CCCCCCCCCCCCCCCCCCOCC(COc1cc(F)cc(C#N)c1)COP(=O)(O)OC[C@@]1(C#N)O[C@@H](c2ccc3c(N)ncnn23)[C@H](O)[C@@H]1O` (stereo partly drawn) [Compound 43, ((2R,3S,4R,5S)-5-(4-aminopyrrolo[2,1-f][1,2,4]triazin-7-yl)-2-cyano-3,4-dihydroxytetrahydrofuran-2-yl)methyl (3-(3-cyano-5-fluorophenoxy)-2-((octadecyloxy)methyl)propyl) hydrogen phosphate] the figure was 901 nM.

For `CCCCCCCCCCCCCCCCCCCC[C@H](COP(=O)(O)OC[C@@]1(C#N)O[C@@H](c2ccc3c(N)ncnn23)[C@H](O)[C@@H]1O)Oc1cccc(C#N)c1` [Compound 51, ((2R,3S,4R,5S)-5-(4-aminopyrrolo[2,1-f][1,2,4]triazin-7-yl)-2-cyano-3,4-dihydroxytetrahydrofuran-2-yl)methyl ((R)-2-(3-cyanophenoxy)docosyl) hydrogen phosphate], the half-maximal effective concentration (EC50) in data set [1] amounted to 19200 nM. Besides, in data set [2], the CC50 at 3 days was more than 44400 nM. Consider `CCCCCCCCCCCCCCCCC[C@H](COP(=O)(O)OC[C@@]1(C#N)O[C@@H](c2ccc3c(N)ncnn23)[C@H](O)[C@@H]1O)OCc1cc(Cl)cc(C#N)c1` [Compound 76, ((2R,3S,4R)-5-(4-aminopyrrolo[2,1-f][1,2,4]triazin-7-yl)-2-cyano-3,4-dihydroxytetrahydrofuran-2-yl)methyl ((R)-2-((3-chloro-5-cyanobenzyl)oxy)nonadecyl) hydrogen phosphate], for which the EC50 in data set [3] worked out at 517 nM. On the same count and under the same terms, with `CCCCCCCCCCCCCCCCCC[C@H](COP(=O)(O)OC[C@@]1(C#N)O[C@@H](c2ccc3c(N)ncnn23)[C@H](O)[C@@H]1O)OCc1cc(F)cc(C#N)c1` [Compound 84, ((2R,3S,4R,5S)-5-(4-aminopyrrolo[2,1-f][1,2,4]triazin-7-yl)-2-cyano-3,4-dihydroxytetrahydrofuran-2-yl)methyl ((R)-2-((3-cyano-5-fluorobenzyl)oxy)icosyl) hydrogen phosphate] the figure was 367 nM.

In the case of `CCCCCCCCCCCCCCCCOC[C@@H](COP(=O)(O)OC[C@@]1(C#N)O[C@@H](c2ccc3c(N)ncnn23)[C@H](O)[C@@H]1O)OCc1cc(F)cc(C#N)c1` [Compound 88, ((2R,3S,4R,5S)-5-(4-aminopyrrolo[2,1-f][1,2,4]triazin-7-yl)-2-cyano-3,4-dihydroxytetrahydrofuran-2-yl)methyl ((S)-2-((3-cyano-5-fluorobenzyl)oxy)-3-(hexadecyloxy)propyl) hydrogen phosphate], the 50% effective concentration (EC50) in data set [3] is 348 nM.
